Experimental data published in patent publication US7390910B2, “Compounds for treating tumors” (priority 2003, dated 2008).
*1 amine or outer side, *2 acyl side, *3 side chain or, on linkers, in order; H or OH if unused. Where a SMILES comes first, the peptide text is derived from it. [ ]: non-standard residue; d: D form. The star is where a group is joined. NMePhe(β,β-Me2) = CN[C@H](C(=O)O)C(C)(C)c1ccccc1; X1 = C/C(=C\[C@H](C(C)C)N(C)[*:1])C(=O)[*:2]; Tle = CC(C)(C)[C@H](N)C(=O)O; NHBn = c1ccc(CN*)cc1

Assays:
LOX = assay: Cell survival assay (SRB), LOX; format: cell-based, human; details: Homo sapiens; LOX cells
Experimental: (§1) Cell Survival Assay: Standard Pharmacological Test Procedure. […] Compounds are incubated with cells for 3 days.

[1] = system: Human Melanoma Carcinoma Lox; assay: Growth of tumors in nude mice (LOX xenograft); format: in vivo, athymic nu/nu female mice
Source text: Growth of Tumors in Nude Mice. […] A p-value ≦0.05 indicates a statistically significant reduction in relative tumor growth of treated group compared to that of the vehicle control group.

[2] = system: bovine microtubule-associated protein (MAP)-rich tubulin; format: biochemical; details: 0.3 uM
Procedure, shortened: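 This in vitro polymerization assay used bovine tubulin rich in microtubule-associated proteins, prepared at 1.5 mg/ml in GPEM (PEM buffer containing 1 mM GTP) and cleared by a 12,000×g spin. Tubulin solution (100 μl/well) was dispensed onto duplicate 10 μl test samples. Control wells held 0.3% DMSO. A SpectraMax Plus reader recorded turbidity at 340 nm every minute over 60 min at 24° C.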

KB85 = assay: cells; format: cell-based; details: 3 days, SRB
Experimental: as §1

KB cells = assay: cells; format: cell-based; details: 3 days, SRB
Experimental: as §1

KBV1 = assay: cells; format: cell-based; details: for IC50: 3 days, SRB; for inhibition at 3 µM: KB-V1, 3000 nM
Experimental: as §1

Colo205 = assay: Cell survival assay (SRB), Colo205; format: cell-based; details: Homo sapiens, COLO 205, 72 h, Colo205 cells, 3 days
Experimental: as §1

HCT-15 = assay: Cell survival assay (SRB), HCT-15; format: cell-based; details: Homo sapiens; HCT-15 cells
Experimental: as §1

NCl-H1299 = assay: Cell survival assay (SRB), NCl-H1299; format: cell-based; details: NCl-H1299 cells
Experimental: as §1

Row | SMILES | Tubulin Polym. % inhibition at 0.3 uM [2] | IC50 (KB85; 72 h) [nM] | IC50 (KB cells; Homo sapiens, KB, 72 h) [nM] | IC50 (KBV1; Homo sapiens, KB-V1, 72 h) [nM] | IC50 (Colo205) [nM] | inhibition at 3 µM (KBV1; Homo sapiens) [%] | further results
1 | CN[C@H](C(=O)N[C@H](C(=O)N(C)[C@H](/C=C(\C)C(=O)N1CCN(C)CC1)C(C)C)C(C)(C)C)C(C)(C)c1ccccc1 [Example 26, N,β,β-trimethyl-L-phenylalanyl-N^1-[(1S,2E)-1-isopropyl-3-methyl-4-(4-methyl-1-piperazinyl)-4-oxo-2-butenyl]-N^1,3-dimethyl-L-valinamide] | 71(2) % | 60 | 33 | 2330 | – | – | IC50 (LOX): 46 nM; % T/C on day 7 ([1]; 15 mg/kg IV on days 1, 5, 9): 4%
2 | CN[C@H](C(=O)N[C@H](C(=O)N(C)[C@H](/C=C(\C)C(=O)N1CCC[C@@H]1C(=O)N1CCC[C@@H]1C(=O)NCc1ccccc1)C(C)C)C(C)(C)C)C(C)(C)c1ccccc1 [Example 28, 1-{(2E,4S)-2,5-dimethyl-4-[methyl(N-methyl-3-phenyl-L-valyl-3-methyl-L-valyl)amino]hex-2-enoyl}-D-prolyl-N-benzyl-D-prolinamide] (H-[NMePhe(β,β-Me2)][Tle][X1][dP][dP]-NHBn) | 56(3) % | 21.9 | 1.07 | – | 0.25 | 14 | % T/C on day 7 ([1]; 10 mg/kg IV on days 1, 5, 9): 10%; % T/C on day 10 ([1]; 10 mg/kg IV on days 1, 5, 9, day 10): 4%
3 | CN[C@H](C(=O)N[C@H](C(=O)N(C)[C@H](/C=C(\C)C(=O)N1CCC[C@H]1[C@H](OC)[C@@H](C)C(=O)N[C@@H](Cc1ccccc1)c1nccs1)C(C)C)C(C)(C)C)C(C)(C)c1ccccc1 [Example 29] | 62% | – | – | – | – | – | % T/C on day 7 ([1]; 10 mg/kg IV on days 1, 5, 9): 14%; % T/C on day 9 ([1]; 10 mg/kg IV on days 1, 5, 9, day 9): 9%; IC50 (KB85): 4.1 nM; IC50 (KB cells): 0.75 nM; IC50 (KBV1): 180 nM
4 | CN[C@H](C(=O)N[C@H](C(=O)N(C)[C@H](/C=C(\C)C(=O)N1CCC[C@H]1[C@H](OC)[C@@H](C)C(=O)OC)C(C)C)C(C)(C)C)C(C)(C)c1ccccc1 [Example 30, N,β,β-trimethyl-L-phenylalanyl-N^1-((1S,2E)-4-{(2S)-2-[(1R,2R)-1,3-dimethoxy-2-methyl-3-oxopropyl]pyrrolidin-1-yl}-1-isopropyl-3-methyl-4-oxobut-2-enyl)-N^1,3-dimethyl-L-valinamide] | 45% | 6 | 3.3 | 96 | – | – | % T/C on day 7 ([1]; 5 mg/kg IV on days 1, 5, 9): 11%; % T/C on day 14 ([1]; 5 mg/kg IV on days 1, 5, 9, day 14): 3%
5 | C/C(=C\[C@H](C(C)C)N(C)C(=O)[C@@H](NC(=O)[C@@H](C)C(C)(C)c1ccccc1)C(C)(C)C)C(=O)O [Example 92, (E,4S)-4-[((2S)-2-{[(2S)-2,3-dimethyl-3-phenylbutanoyl]amino}-3,3-dimethylbutanoyl)(methyl)amino]-2,5-dimethyl-2-hexenoic acid] | 94% | 990 | 861 | – | – | 30 | IC50 (LOX): 1070 nM; IC50 (HCT-15): 1380 nM; IC50 (NCl-H1299): 1200 nM
6 | C/C(=C\[C@H](C(C)C)N(C)C(=O)[C@@H](NC(=O)C(Cc1ccccc1)C(C)(C)c1ccccc1)C(C)(C)C)C(=O)O (stereo partly drawn) [Example 96, (E,4S)-4-[((2S)-3,3-dimethyl-2-{[3-methyl-2-benzyl-3-phenylbutanoyl]amino}butanoyl)(methyl)amino]-2,5-dimethyl-2-hexenoic acid] | 46% | 1120 | 846 | 2630 | 340 | 11 | –
7 | C=CCC(C(=O)N[C@H](C(=O)N(C)[C@H](/C=C(\C)C(=O)O)C(C)C)C(C)(C)C)C(C)(C)c1ccccc1 (stereo partly drawn) [Example 98, (E,4S)-4-[((2S)-3,3-dimethyl-2-{[3-methyl-2-allyl-3-phenylbutanoyl]amino}butanoyl)(methyl)amino]-2,5-dimethyl-2-hexenoic acid] | 63% | 1200 | 1150 | – | 270 | – | KBV1 % inhibition @6000 (KBV1; @6000): 42%@6000
8 | CCC(C(=O)N[C@H](C(=O)N(C)[C@H](/C=C(\C)C(=O)O)C(C)C)C(C)(C)C)C(C)(C)c1ccccc1 (stereo partly drawn) [Example 100, (E,4S)-4-[((2S)-3,3-dimethyl-2-{[3-methyl-2-ethyl-3-phenylbutanoyl]amino}butanoyl)(methyl)amino]-2,5-dimethyl-2-hexenoic acid] | 54% | 1150 | 957 | 5260 | 190 | – | –
